Reference: patent US10253049B2, “Boronic acid derivatives” (MERCK PATENT GMBH, priority 2014, dated 2019)

Assays:
[1] = target: LMP7 (purified human immunoproteasome) (Homo sapiens, UniProt P28062); assay: Determination of LMP7 activity (fluorescence intensity assay, Suc-LLVY-AMC); format: biochemical
Method: Determination of LMP7 Activity
Measurement of LMP7 inhibition is performed in 384 well format based on fluorescence intensity assay.
(§1) Purified human immunoproteasome (0.25 nM) and serial diluted compounds in DMSO (range of concentrations from 30 μM to 15 pM) or controls are incubated for 20 minutes or 120 minutes (long incubation) at 25° C. in assay buffer containing 50 mM Tris pH 7.4, 0.03% SDS, 1 mM EDTA and 1% DMSO. The reaction is initiated by the addition of the fluorogenic peptide substrate, Suc-LLVY-AMC (Bachem I-1395), at a concentration of 40 μM. After 60 minutes of incubation at 37° C., fluorescence intensity is measured at λex=350 nm and λem=450 nm with a fluorescence reader (Perkin Elmer Envision reader or equivalent).
(§2) Unless indicated otherwise the results are obtained after incubation for 20 minutes.

[2] = target: Beta5 (purified human constitutive proteasome) (Homo sapiens, UniProt P28074); assay: Determination of Beta5 activity (fluorescence intensity assay, Suc-LLVY-AMC); format: biochemical
Method: Determination of Beta5 Activity
Measurement of Beta5 inhibition is performed in 384 well format based on fluorescence intensity assay.
as §1, with “constitutive proteasome (1.25” for “immunoproteasome (0.25”
as §2

Compound | IC50 ([1]; incubation for 20 minutes) | IC50 ([2]; incubation for 20 minutes) | Selectivity LMP7 vs Beta5 ([2]; incubation for 20 minutes) | other results
CCN(CCC(=O)N[C@@H](Cc1ccccc1)B(O)O)C(=O)c1ccccc1C [Compound No. 12, [(1R)-1-[3-[ethyl-(2-methylbenzoyl)amino]propanoylamino]-2-phenyl-ethyl]boronic acid] | 50 to 500 nM |  |  | 
CCc1cccc(C[C@H](NC(=O)CCS(C)(=O)=O)B(O)O)c1 [Compound No. 20, [(1R)-2-(3-ethylphenyl)-1-(3-methylsulfonylpropanoylamino)ethyl]-boronic acid] | 50 to 500 nM | 500 to 5000 nM | +++ (+++: 30 ≤ Selectivity < 50) | 
Cc1ccc(C[C@H](NC(=O)CCN(c2ccccc2)S(C)(=O)=O)B(O)O)cc1 [Compound No. 3, [(1R)-1-[3-(N-methylsulfonylanilino)propanoylamino]-2-(p-tolyl)ethyl]boronic acid] | < 50 nM | 50 to 500 nM | +++ (+++: 30 ≤ Selectivity < 50) | 
CCN(CC(=O)N[C@@H](Cc1ccc(C)cc1C)B(O)O)S(=O)(=O)c1ccccc1C [Compound No. 29, [(1R)-2-(2,4-dimethylphenyl)-1-[[2-[ethyl(o-tolylsulfonyl)amino]acetyl]-amino]ethyl]boronic acid] | < 50 nM | 500 to 5000 nM | +++++ (+++++: Selectivity ≥ 70) | 
O=C(CCS(=O)(=O)c1ccccc1)N[C@@H](Cc1coc2ccccc12)B(O)O [Compound No. 4, [(1R)-1-[3-(benzenesulfonyl)propanoylamino]-2-(benzofuran-3-yl)ethyl]boronic acid] | < 50 nM | < 50 nM | +++ (+++: 30 ≤ Selectivity < 50) | 
CCC(=O)N(CC(=O)N[C@@H](Cc1ccc(C)cc1C)B(O)O)c1ccccc1 [Compound No. 34, [(1R)-2-(2,4-dimethylphenyl)-1-[[2-(N-propanoylanilino)acetyl]amino]-ethyl]boronic acid] | < 50 nM | 500 to 5000 nM | +++++ (+++++: Selectivity ≥ 70) | 
Cc1ccc(S(=O)(=O)N(CC(=O)N[C@@H](Cc2ccc(C)cc2C)B(O)O)C(C)C)cc1 [Compound No. 33, [(1R)-2-(2,4-dimethylphenyl)-1-[[2-[isopropyl(p-tolylsulfonyl)amino]-acetyl]amino]ethyl]boronic acid] | < 50 nM | 500 to 5000 nM | +++++ (+++++: Selectivity ≥ 70) | 
CCN(CCC(=O)N[C@@H](Cc1ccc(F)cc1)B(O)O)C(=O)c1ccc(C#N)cc1 [Compound No. 28, [(1R)-1-[3-[(4-cyanobenzoyl)-ethyl-amino]propanoylamino]-2-(4-fluorophenyl)ethyl]boronic acid] | < 50 nM | 500 to 5000 nM | ++++ (++++: 50 ≤ Selectivity < 70) | 
CCN(CC(=O)N[C@@H](Cc1ccc(C)cc1C)B(O)O)S(=O)(=O)c1ccc(C)cc1 [Compound No. 30, [(1R)-2-(2,4-dimethylphenyl)-1-[[2-[ethyl(p-tolylsulfonyl)amino]acetyl]-amino]ethyl]boronic acid] | < 50 nM | 500 to 5000 nM | +++++ (+++++: Selectivity ≥ 70) | 
CCN(CCC(=O)N[C@@H](Cc1ccccc1)B(O)O)C(=O)c1ccccc1 [Compound No. 8, [(1R)-1-[3-[benzoyl(ethyl)amino]propanoylamino]-2-phenyl-ethyl]boronic acid] | 50 to 500 nM | 500 to 5000 nM | +++ (+++: 30 ≤ Selectivity < 50) | 
CCN(CC(=O)N[C@@H](Cc1ccc(C)cc1C)B(O)O)S(=O)(=O)c1cccc(C)c1 [Compound No. 31, [(1R)-2-(2,4-dimethylphenyl)-1-[[2-[ethyl(m-tolylsulfonyl)amino]-acetyl]amino]ethyl]boronic acid] | < 50 nM | 50 to 500 nM | ++++ (++++: 50 ≤ Selectivity < 70) | 
Cc1ccc(C[C@H](NC(=O)CCN(C(C)C)S(=O)(=O)c2ccccc2)B(O)O)cc1 [Compound No. 6, [(1R)-1-[3-[benzenesulfonyl(isopropyl)amino]propanoylamino]-2-(p-tolyl)ethyl]boronic acid] | < 50 nM |  |  | 
CN(C)C(=O)C(C(=O)N[C@@H](Cc1coc2ccccc12)B(O)O)c1ccccc1 (stereo partly drawn) [Compound No. 38, [(1R)-2-(benzofuran-3-yl)-1-[[3-(dimethylamino)-3-oxo-2-phenyl-propanoyl]amino]ethyl]boronic acid] | < 50 nM | 500 to 5000 nM | +++++ (+++++: Selectivity ≥ 70) | 
CCN(CCC(=O)N[C@@H](Cc1ccc(F)cc1)B(O)O)C(=O)c1ccc(OC)cc1 [Compound No. 25, [(1R)-1-[3-[ethyl-(4-methoxybenzoyl)amino]propanoylamino]-2-(4-fluorophenyl)ethyl]boronic acid] | < 50 nM | 500 to 5000 nM | ++++ (++++: 50 ≤ Selectivity < 70) | 
CS(=O)(=O)CCC(=O)N[C@@H](Cc1coc2ccccc12)B(O)O [Compound No. 23, [(1R)-2-(benzofuran-3-yl)-1-(3-methylsulfonylpropanoylamino)ethyl]-boronic acid] | < 50 nM |  |  | 
CCN(CC(=O)N[C@@H](Cc1ccc(C)cc1C)B(O)O)C(=O)CCl [Compound No. 37, [(1R)-1-[[2-[(2-chloroacetyl)-ethyl-amino]acetyl]amino]-2-(2,4-dimethylphenyl)ethyl]boronic acid] | 50 to 500 nM | > 5000 nM | +++ (+++: 30 ≤ Selectivity < 50) | 
CCN(CCC(=O)N[C@@H](C[C@@H]1COc2ccccc21)B(O)O)C(=O)c1ccc(Cl)cc1 [Compound No. 42, [(1R)-1-[3-[(4-chlorobenzoyl)-ethyl-amino]propanoylamino]-2-[(3S)-2,3-dihydrobenzofuran-3-yl]ethyl]boronic acid] |  |  |  | IC50 ([1]; long incubation (120 min)): < 50 nM; IC50 ([2]; long incubation (120 min)): 50 to 500 nM; Selectivity LMP7 vs Beta5 ([2]; long incubation (120 min)): +++++ (+++++: Selectivity ≥ 70)
CCc1cccc(C[C@H](NC(=O)CCCC(=O)N(C)C)B(O)O)c1 [Compound No. 18, [(1R)-1-[[5-(dimethylamino)-5-oxo-pentanoyl]amino]-2-(3-ethylphenyl)ethyl]boronic acid] | 500 to 5000 nM | > 5000 nM | +++ (+++: 30 ≤ Selectivity < 50) | 
CN(CC(=O)N[C@@H](Cc1ccsc1)B(O)O)C(=O)c1ccccc1C(F)(F)F [Compound No. 40, [(1R)-1-[[2-[methyl-[2-(trifluoromethyl)benzoyl]amino]acetyl]amino]-2-(3-thienyl)ethyl]boronic acid] |  |  |  | IC50 ([1]; long incubation (120 min)): 500 to 5000 nM; IC50 ([2]; long incubation (120 min)): > 5000 nM
CCN(CCC(=O)N[C@@H](Cc1ccc(C)cc1)B(O)O)S(=O)(=O)c1ccccc1 [Compound No. 5, [(1R)-1-[3-[benzenesulfonyl(ethyl)amino]propanoylamino]-2-(p-tolyl)ethyl]boronic acid] | < 50 nM |  |  | 
CN(CCC(=O)N[C@@H](Cc1ccccc1)B(O)O)C(=O)c1ccccc1 [Compound No. 10, [(1R)-1-[3-[benzoyl(methyl)amino]propanoylamino]-2-phenyl-ethyl]boronic acid] | 50 to 500 nM |  |  | 
CCN(CCC(=O)N[C@@H](Cc1ccc(C)cc1)B(O)O)S(=O)(=O)CC [Compound No. 11, [(1R)-1-[3-[ethyl(ethylsulfonyl)amino]propanoylamino]-2-(p-tolyl)ethyl]boronic acid] | < 50 nM |  |  | 
Cc1ccc(C[C@H](NC(=O)CCN(C)S(=O)(=O)c2ccccc2)B(O)O)cc1 [Compound No. 7, [(1R)-1-[3-[benzenesulfonyl(methyl)amino]propanoylamino]-2-(p-tolyl)ethyl]boronic acid] | < 50 nM |  |  | 
CCN(CC(=O)N[C@@H](Cc1ccccc1)B(O)O)C(=O)c1ccccc1 [Compound No. 17, [(1R)-1-[[2-[benzoyl(ethyl)amino]acetyl]amino]-2-phenyl-ethyl]boronic acid] | 50 to 500 nM |  |  | 
CCc1cccc(C[C@H](NC(=O)CCCCS(C)(=O)=O)B(O)O)c1 [Compound No. 22, [(1R)-2-(3-ethylphenyl)-1-(5-methylsulfonylpentanoylamino)ethyl]-boronic acid] | 50 to 500 nM |  |  | 
CC(=O)N(CCC(=O)N[C@@H](Cc1ccccc1)B(O)O)c1ccccc1 [Compound No. 1, [(1R)-1-[3-(N-acetylanilino)propanoylamino]-2-phenyl-ethyl]boronic acid] | 50 to 500 nM |  |  | 
Cc1ccc(C[C@H](NC(=O)CCN(C(C)C)S(C)(=O)=O)B(O)O)cc1 [Compound No. 15, [(1R)-1-[3-[isopropyl(methylsulfonyl)amino]propanoylamino]-2-(p-tolyl)ethyl]boronic acid] | 50 to 500 nM |  |  | 
CCS(=O)(=O)N(CCC(=O)N[C@@H](Cc1ccc(C)cc1)B(O)O)c1ccccc1 [Compound No. 2, [(1R)-1-[3-(N-ethylsulfonylanilino)propanoylamino]-2-(p-tolyl)ethyl]boronic acid] | < 50 nM |  |  | 
CCN(CCC(=O)N[C@@H](Cc1ccccc1)B(O)O)C(=O)c1cccc(C)c1 [Compound No. 13, [(1R)-1-[3-[ethyl-(3-methylbenzoyl)amino]propanoylamino]-2-phenyl-ethyl]boronic acid] | 50 to 500 nM |  |  | 
